Data reported in US8802702B2, “Compounds for reducing drug resistance and uses thereof” (The General Hospital Corporation, priority 2009, dated 2014).
Like-named read-outs stand apart in the source and are kept apart here.

Tests used:
[1] = tested on: SKOV-3TR cells; test: Reversal of drug resistance, cytotoxicity (MTT) assay in SKOV-3TR; type: cell-based; conditions: for IC50: Homo sapiens, SKOV3TR
Procedure: FIGS. 1 (a-b) are graphs that depict the effects of NSC23925 on drug sensitivity in ovarian cancer cells; 1(a) depicts the effects of NSC23925 on sensitive (SKOV-3) and resistant (SKOV-3TR) cells; 1(b) depicts the effects of NSC23925 on sensitive (OVCAR8) and resistant (OVCAR8TR) cells. […] The relative sensitivity of each line to paclitaxel was determined by MTT assay, as described below in the Examples section, 6 days post treatment. […]
Drug cytotoxicity was assessed in vitro using the MTT assay. SKOV-3 and SKOV-3TR cells were used herein. Briefly, 2×10^3 cells per well were plated in 96-well plates in culture medium (RPMI 1640 supplemented with 10% fetal bovine serum and penicillin/streptomycin) containing increasing concentrations of drug. […] The resulting formazan product was dissolved with acid-isopropanol and the absorbance at a wavelength of 490 nm (A490) was read on a SPECTRAmax® Microplate Spectrophotometer (Molecular Devices, Sunnyvale, Calif.). The absorbance values were normalized by assigning the value of the control line in the medium without drug to 1.0 and the value of the no cell control to 0. Experiments were performed in triplicate.

[2] = tested on: KHOSR2 cells; test: Reversal of drug resistance, cytotoxicity assay in KHOSR2; type: cell-based, human; conditions: for IC50: Homo sapiens
[3] = tested on: MCF-7 MX cells (express BCRP, not Pgp1); test: Reversal of drug resistance in non-Pgp1 MDR cells expressing BCRP; type: cell-based, human
Text: Dr. Efstathios Gonos (Institute of Biological Research & Biotechnology, Athens, Greece) provided the doxorubicin resistant U-2OS R2 (referred in the text below as U-2OSDR), KHOS R2 cell lines. Dr. Stephen. Howell (The University of California Medical Center, San Diego) provided the cisplatin-resistant ovarian cancer IGROV1cp and 2008 cp70 cell lines. Dr. Erasmus Schneider (Wadsworth Center, Albany) provided the mitoxantrane resistant breast cancer MCF-7/MX cell line. Dr. Katia Scotlandi (Institute Orthopedics Rizzoli, Italy) provided ET-743 resistant TC-ET 6 nM and TC-ET 12 nM cell lines.

[4] = tested on: OVCAR8 and OVCAR8TR cells; test: Cytotoxicity of NSC23925 alone (MTT assay), OVCAR8/OVCAR8TR; type: cell-based, human
Procedure: Cells were treated with the NSC23925 in RPMI1640 complete media at the indicated concentrations. The relative sensitivity of each line to NSC23925 was determined by MTT assay. A: Nonspecific toxicity of NSC23925 on SKOV3 vs SKOV-3TR. B: Nonspecific toxicity of NSC23925 on OVCAR8 vs OVCAR8TR. Drug cytotoxicity was assessed in vitro using the MTT assay. SKOV-3 and SKOV-3TR cells were used herein. Briefly, 2×10^3 cells per well were plated in 96-well plates in culture medium (RPMI 1640 supplemented with 10% fetal bovine serum and penicillin/streptomycin) containing increasing concentrations of drug. After 7 days of culture, 10 μl MTT (5 mg/ml in PBS, obtained from Sigma) were added to each well and the plates were incubated for 4 h. The resulting formazan product was dissolved with acid-isopropanol and the absorbance at a wavelength of 490 nm (A490) was read on a SPECTRAmax® Microplate Spectrophotometer (Molecular Devices, Sunnyvale, Calif.). The absorbance values were normalized by assigning the value of the control line in the medium without drug to 1.0 and the value of the no cell control to 0. Experiments were performed in triplicate.

[5] = tested on: Pgp1 mediated transport in SKOV-3TR cells; test: Duration of MDR reversal after incubation and washout; type: cell-based, human; conditions: overnight exposure 1 μM
Procedure: Drug cytotoxicity was determined by MTT assay.
The cells were then incubated for 4 days with addition of varying concentrations of paclitaxel. Final results were determined by MTT assay as described above.

[6] = tested on: OVCAR8TR cells; test: Reversal of drug resistance, cytotoxicity (MTT) assay in OVCAR8TR; type: cell-based, human; conditions: for IC50: Homo sapiens
[7] = Doxorubicin, add NSC23925 0.1 μM
[8] = Doxorubicin, add NSC23925 0.5 μM
[9] = Paclitaxel, add NSC23925 0.1 μM
[10] = Paclitaxel, add NSC23925 0.5 μM

COc1ccc(-c2cc(C(O)C3CCCCN3)c3ccccc3n2)cc1 (centres unmarked) [NSC23925, (2-(4-methoxyphenyl)quinolin-4-yl)(piperidin-2-yl)methanol]
fold-reversal of drug resistance, SKOV-3TR [1, 7]: (1.4) fold
fold-reversal of drug resistance, SKOV-3TR [1, 8]: (3.3) fold
fold-reversal of drug resistance, SKOV-3TR ([1]; Doxorubicin, add NSC23925 1 μM): (11.5) fold
fold-reversal of drug resistance, SKOV-3TR ([1]; ET-743, add NSC23925 0.1 μM): (0.8) fold
fold-reversal of drug resistance, SKOV-3TR ([1]; ET-743, add NSC23925 0.5 μM): (1) fold
fold-reversal of drug resistance, SKOV-3TR ([1]; ET-743, add NSC23925 1 μM): (1) fold
IC50 ([1]; Doxorubicin, add NSC23925 0.1 μM, read-out: SKOV-3TR IC50 of Doxorubicin): 16500 ± 210 nM
IC50 ([1]; Doxorubicin, add NSC23925 0.5 μM, read-out: SKOV-3TR IC50 of Doxorubicin): 6780 ± 160 nM
IC50 ([1]; Doxorubicin, add NSC23925 1 μM, read-out: SKOV-3TR IC50 of Doxorubicin): 1940 ± 220 nM
IC50 ([1]; ET-743, add NSC23925 0.1 μM, read-out: SKOV-3TR IC50 of ET-743): 5 ± 2 nM
IC50 ([1]; ET-743, add NSC23925 0.5 μM, read-out: SKOV-3TR IC50 of ET-743): 4 ± 1 nM
IC50 ([1]; ET-743, add NSC23925 1 μM, read-out: SKOV-3TR IC50 of ET-743): 4 ± 1 nM
IC50 ([1]; PM00104, add NSC23925 0.1 μM, read-out: SKOV-3TR IC50 of PM00104): 5 ± 2 nM
IC50 ([1]; PM00104, add NSC23925 0.5 μM, read-out: SKOV-3TR IC50 of PM00104): 7 ± 1 nM
IC50 ([1]; PM00104, add NSC23925 1 μM, read-out: SKOV-3TR IC50 of PM00104): 5 ± 2 nM
IC50 ([1]; Paclitaxel, add NSC23925 0.1 μM, read-out: SKOV-3TR IC50 of Paclitaxel): 302 ± 56 nM
IC50 ([1]; Paclitaxel, add NSC23925 0.5 μM, read-out: SKOV-3TR IC50 of Paclitaxel): 132 ± 47 nM
IC50 ([1]; Paclitaxel, add NSC23925 1 μM, read-out: SKOV-3TR IC50 of Paclitaxel): 37 ± 28 nM
fold-reversal of drug resistance, SKOV-3TR ([1]; PM00104, add NSC23925 0.1 μM): (1.2) fold
fold-reversal of drug resistance, SKOV-3TR ([1]; PM00104, add NSC23925 0.5 μM): (0.9^ fold
fold-reversal of drug resistance, SKOV-3TR ([1]; PM00104, add NSC23925 1 μM): (1.2) fold
fold-reversal of drug resistance, SKOV-3TR [1, 9]: (1.03) fold
fold-reversal of drug resistance, SKOV-3TR [1, 10]: (2.4) fold
fold-reversal of drug resistance, SKOV-3TR ([1]; Paclitaxel, add NSC23925 1 μM): (8.4) fold
fold-reversal of drug resistance, KHOSR2 [2, 7]: (1.4) fold
fold-reversal of drug resistance, KHOSR2 [2, 8]: (8.6) fold
fold-reversal of drug resistance, KHOSR2 ([2]; Doxorubicin, add NSC23925 1 μM): (35) fold
fold-reversal of drug resistance, KHOSR2 ([2]; ET-743, add NSC23925 0.1 μM): (1.2) fold
fold-reversal of drug resistance, KHOSR2 ([2]; ET-743, add NSC23925 0.5 μM): (2.1) fold
fold-reversal of drug resistance, KHOSR2 ([2]; ET-743, add NSC23925 1 μM): (3.2) fold
IC50 ([2]; Doxorubicin, add NSC23925 0.1 μM, read-out: KHOSR2 IC50 of Doxorubicin): 7360 ± 336 nM
IC50 ([2]; Doxorubicin, add NSC23925 0.5 μM, read-out: KHOSR2 IC50 of Doxorubicin): 1200 ± 461 nM
IC50 ([2]; Doxorubicin, add NSC23925 1 μM, read-out: KHOSR2 IC50 of Doxorubicin): 292 ± 210 nM
IC50 ([2]; ET-743, add NSC23925 0.1 μM, read-out: KHOSR2 IC50 of ET-743): 145 ± 45 nM
IC50 ([2]; ET-743, add NSC23925 0.5 μM, read-out: KHOSR2 IC50 of ET-743): 83 ± 39 nM
IC50 ([2]; ET-743, add NSC23925 1 μM, read-out: KHOSR2 IC50 of ET-743): 54 ± 34 nM
IC50 ([2]; PM00104, add NSC23925 0.1 μM, read-out: KHOSR2 IC50 of PM00104): 113 ± 38 nM
IC50 ([2]; PM00104, add NSC23925 0.5 μM, read-out: KHOSR2 IC50 of PM00104): 26 ± 14 nM
IC50 ([2]; PM00104, add NSC23925 1 μM, read-out: KHOSR2 IC50 of PM00104): 8 ± 16 nM
IC50 ([2]; Paclitaxel, add NSC23925 0.1 μM, read-out: KHOSR2 IC50 of Paclitaxel): 160 ± 16 nM
IC50 ([2]; Paclitaxel, add NSC23925 0.5 μM, read-out: KHOSR2 IC50 of Paclitaxel): 120 ± 32 nM
IC50 ([2]; Paclitaxel, add NSC23925 1 μM, read-out: KHOSR2 IC50 of Paclitaxel): 60 ± 20 nM
fold-reversal of drug resistance, KHOSR2 ([2]; PM00104, add NSC23925 0.1 μM): (1.3) fold
fold-reversal of drug resistance, KHOSR2 ([2]; PM00104, add NSC23925 0.5 μM): (5.5) fold
fold-reversal of drug resistance, KHOSR2 ([2]; PM00104, add NSC23925 1 μM): (17.9) fold
fold-reversal of drug resistance, KHOSR2 [2, 9]: (1.3) fold
fold-reversal of drug resistance, KHOSR2 [2, 10]: (1.8) fold
fold-reversal of drug resistance, KHOSR2 ([2]; Paclitaxel, add NSC23925 1 μM): (3.5) fold
Reversal of drug resistance in MCF-7 MX cells [3]: unable to reverse drug resistance
Cytotoxic effect of NSC23925 alone in parental OVCAR8 ([4]; <5-10 μM NSC23925 alone, cells lack Pgp1): no cytotoxic effect
IC50 ([4]; Homo sapiens, OVCAR-8, OVCAR8/OVCAR8TR, single agent, read-out: IC50 for NSC23925 (proliferation)): 25000 nM
Duration of inhibition of Pgp1 mediated transport after wash-out [5]: at least 4 days
fold-reversal of drug resistance, OVCAR8TR [6, 7]: (2.3) fold
fold-reversal of drug resistance, OVCAR8TR [6, 8]: (5.3) fold
fold-reversal of drug resistance, OVCAR8TR ([6]; Doxorubicin, add NSC23925 1 μM): (23) fold
fold-reversal of drug resistance, OVCAR8TR ([6]; ET-743, add NSC23925 0.1 μM): (1.2) fold
fold-reversal of drug resistance, OVCAR8TR ([6]; ET-743, add NSC23925 0.5 μM): (1.2) fold
fold-reversal of drug resistance, OVCAR8TR ([6]; ET-743, add NSC23925 1 μM): (0.9) fold
IC50 ([6]; Doxorubicin, add NSC23925 0.1 μM, read-out: OVCAR8TR IC50 of Doxorubicin): 12400 ± 360 nM
IC50 ([6]; Doxorubicin, add NSC23925 0.5 μM, read-out: OVCAR8TR IC50 of Doxorubicin): 5200 ± 471 nM
IC50 ([6]; Doxorubicin, add NSC23925 1 μM, read-out: OVCAR8TR IC50 of Doxorubicin): 1220 ± 122 nM
IC50 ([6]; ET-743, add NSC23925 0.1 μM, read-out: OVCAR8TR IC50 of ET-743): 5 ± 1 nM
IC50 ([6]; ET-743, add NSC23925 0.5 μM, read-out: OVCAR8TR IC50 of ET-743): 5 ± 1 nM
IC50 ([6]; ET-743, add NSC23925 1 μM, read-out: OVCAR8TR IC50 of ET-743): 7 ± 2 nM
IC50 ([6]; PM00104, add NSC23925 0.1 μM, read-out: OVCAR8TR IC50 of PM00104): 8 ± 2 nM
IC50 ([6]; PM00104, add NSC23925 0.5 μM, read-out: OVCAR8TR IC50 of PM00104): 6 ± 2 nM
IC50 ([6]; PM00104, add NSC23925 1 μM, read-out: OVCAR8TR IC50 of PM00104): 5 ± 2 nM
IC50 ([6]; Paclitaxel, add NSC23925 0.5 μM, read-out: OVCAR8TR IC50 of Paclitaxel): 72 ± 46 nM
IC50 ([6]; Paclitaxel, add NSC23925 1 μM, read-out: OVCAR8TR IC50 of Paclitaxel): 28 ± 47 nM
fold-reversal of drug resistance, OVCAR8TR ([6]; PM00104, add NSC23925 0.1 μM): (1) fold
fold-reversal of drug resistance, OVCAR8TR ([6]; PM00104, add NSC23925 0.5 μM): (1.3) fold
fold-reversal of drug resistance, OVCAR8TR ([6]; PM00104, add NSC23925 1 μM): (1.6) fold
fold-reversal of drug resistance, OVCAR8TR [6, 9]: (2.7) fold
fold-reversal of drug resistance, OVCAR8TR ([6]; Paclitaxel, add NSC23925 1 μM): (12.1) fold
